The results in this text go back to US20260138976A1 (Hoffmann-La Roche Inc., priority 2022, published 2026).

The target in test [1] is T1, DGKα (hDGKalpha(1-735)-N-His) (Homo sapiens, UniProt P23743).
T1 construct: hDGKalpha(1-735)-N-His; His (N); made in house; host or cells: Sf21 insect cells (baculovirus)
The experiment in a line: In vitro DGK inhibition assay, DGKalpha ADP Glo (in house). The following applies: 4 nM DGKα, 25 μM ATP, 125 uM DLG in liposomes, 1 hour reaction. Type of test: biochemical. The essentials: (§1)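 ADP-Glo luminescence measured ADP formed over 1 h by Sf21-expressed full-length human enzymes: DGKα at 4 nM with 25 µM ATP, DGKζ at 2 nM with 50 µM ATP, both on 125 µM DLG in PS/PC liposomes. Dose–response used 11 threefold dilutions at 2% final DMSO.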

For test [2], the target named is T2, DGKζ (hDGKzeta(1-928)-N-His) (Homo sapiens, UniProt Q13574).
T2 construct: hDGKzeta(1-928)-N-His; His (N); made in house; host or cells: Sf21 insect cells (baculovirus)
T2 sequence (Q13574 whole entry): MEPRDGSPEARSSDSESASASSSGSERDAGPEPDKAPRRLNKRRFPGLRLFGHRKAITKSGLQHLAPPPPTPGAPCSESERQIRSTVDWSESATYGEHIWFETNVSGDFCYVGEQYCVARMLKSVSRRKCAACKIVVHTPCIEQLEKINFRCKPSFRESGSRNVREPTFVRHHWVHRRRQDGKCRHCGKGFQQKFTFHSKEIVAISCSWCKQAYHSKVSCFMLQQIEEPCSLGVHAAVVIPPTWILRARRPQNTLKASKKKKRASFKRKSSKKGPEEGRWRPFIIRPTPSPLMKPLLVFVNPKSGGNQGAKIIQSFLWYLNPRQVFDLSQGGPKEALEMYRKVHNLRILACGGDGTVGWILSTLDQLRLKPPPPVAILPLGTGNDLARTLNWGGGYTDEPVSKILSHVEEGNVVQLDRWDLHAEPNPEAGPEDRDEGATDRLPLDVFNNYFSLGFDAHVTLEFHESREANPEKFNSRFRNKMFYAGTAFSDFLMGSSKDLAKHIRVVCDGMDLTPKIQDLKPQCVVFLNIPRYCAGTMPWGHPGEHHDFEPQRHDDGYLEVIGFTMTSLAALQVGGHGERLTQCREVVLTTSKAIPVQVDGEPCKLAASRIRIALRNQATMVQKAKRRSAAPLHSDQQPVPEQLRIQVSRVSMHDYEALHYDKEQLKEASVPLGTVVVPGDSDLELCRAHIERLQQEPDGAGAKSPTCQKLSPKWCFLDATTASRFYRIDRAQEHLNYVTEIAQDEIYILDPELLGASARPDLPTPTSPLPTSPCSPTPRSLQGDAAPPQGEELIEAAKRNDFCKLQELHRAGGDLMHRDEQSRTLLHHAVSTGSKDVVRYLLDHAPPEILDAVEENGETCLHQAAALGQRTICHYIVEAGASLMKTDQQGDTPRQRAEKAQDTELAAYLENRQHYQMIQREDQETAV
Nature of the test: In vitro DGK inhibition assay, DGKzeta ADP Glo (in house). The following applies: 2 nM DGKζ, 50 μM ATP, 125 uM DLG in liposomes, 1 hour reaction. It is filed as biochemical. Put shortly: as §1

For the next test, the system named is MV-3 cells. The experiment in a line: T-cell - TCB - MV3 killing assay. It is filed as cell-based, human. The note with it: for Emax: Homo sapiens, MV-3, 120 h, % TCL normalized: MCSP-TCB only = neutral control, 20 μM reference compound A1 = 100%, read-out: MSCP TCB killing MV-3 cells 5 d Emax (%); for EC50: primary human T-cells + MV-3 RFP cells, MCSP-TCB 1.5 pM-5 pM, 120 hours imaging, read-out: MSCP TCB killing MV-3 cells 5 d EC50. As for the experimental part: All culturing steps are executed at 5% CO2, 37° C. and 95% humidity. MV-3 RFP cells are cultured in MV-3 medium (DMEM+10% FBS, 1× PenStrep and 0.5 μg/mL Puromycin) for at least 3 weeks. Cultured MV-3 cells at 80% confluency are washed once with PBS−− and trypsinized until detached. […] Cells are seeded with 100 μL/well into a 96-well plate (TTP, #92696), and placed for 40 minutes without moving at room temperature in order to achieve evenly distributed attachment of cells. Plates are then incubated until further use.
On the next day, expanded primary human T-cells are thawed and resuspended in T-cell medium to 4*10^6 cells/mL. For 3 hours, they are cultured in a 6-well plate with 6 mL per well at maximum. After culturing the T-cells, they are filtered through a cell strainer (Miltenyi Biotech, #130-041-407), counted again, and cell concentration is adjusted to 2*10^6 cells/mL.
MCSP-TCB or PBS are pre-diluted in T-cell medium (concentration depending on T-cell donor), 4 times more concentrated than the end-concentration. 60 μL/well of pre-dilutions are then distributed into a round bottom plate (Costar, #3799) according to plate layout. Compounds are added in a 9 pt dose response with the Tecan D300e Digital Dispenser, as well 4 times more concentrated than the end-concentration. DMSO concentration of all wells is adjusted to 0.8%, resulting in 0.2% as final concentration.
60 μL per well of T-cell suspension are added to the prepared round bottom plate and resuspended with a manual multichannel. 100 μL/well of the resuspended T-cell suspension including treatments are then transferred cautiously to the over-night cultured MV-3 cells according to plate layout. 100 μL T-cell medium only is added to the outer MV-3 wells only. Final compound DR is starting at 20 μM with a dilution factor of 3.333. Final TCB concentration is between 1.5 pM to 5 pM and was determined for each T-cell donor individually by running TCB titrations. For each donor, a TCB concentration was chosen which corresponds to 10-20% MV3 baseline cell killing in the absence of compound treatment. Positive control is the reference compound A1 which is added in a DR, as well as additional wells with only 20 μM. 20 μM of reference compound A1 represent the positive stimulator control, TCB only (DMSO wells) the neutral control.
After transfer of T-cells with treatment pre-dilutions, MV-3 cells are imaged by time-lapse microscopy using IncucyteZOOM™ (Essen BioScience, MI, USA). Imaging is performed every 3 hours for a total of 120 hours (10× objective, phase and red image channels, acquisition time 400 ms, Green/Red 4614 optical module). RFP object count per well is analysed in the IncucyteZOOM™ Software (Version 2019B Rev2) with a mask that was previously created and optimized for MV-3 cells. Raw data is exported as object count/well and values are normalized as % TCL compared to wells with MV-3 only, representing 100% growth and therefore 0% TCL.
Calculated % TCL values are analysed in Genedata Screener using Roche Normalization PCT_POS_CTRL with MCSP-TCB only set as Neutral Control and 20 μM of the reference compound A1 set as Stimulator Control/100%.
Induced TCL by compounds without TCB treatment or toxicity (observed in the PBS condition) were be flagged.

The target of another test is T3, DGK ζ kinase (Homo sapiens, UniProt Q13574).
T3 construct: purchased Reaction Biology Corp. (contract assay service)
T3 sequence (Q13574 whole entry): as above
Nature of the test: DGKzeta kinase ADP Glo assay run by Reaction Biology Corp. Type of test: biochemical. The note with it: 2 nM kinase, 50 µM ATP, 500 μM DLG, 10-dose duplicate. How it is done:
DGK α and ζ kinases use ATP to phosphorylate the substrate 1,2-dilauroyl-sn-glycerol (DLG). ATP is converted to ADP as a result of this enzymatic reaction.
After the kinase reaction, an ATP-depletion reagent is added to terminate the kinase reaction and deplete any remaining ATP, leaving only ADP. Second, a detection reagent is added to simultaneously convert ADP to ATP and allow the newly synthesized ATP to be converted to light using a coupled luciferase/luciferin reaction.
DGK α and ζ kinase ADP Glo assays were ran by Reaction Biology Corp., 1 Great Valley Parkway, Suite 2, Malvern, 19355, PA, USA. Information provided by the service provider are the following: DGK α and ζ kinases were used at 2 nM final concentration. Reactions were carried out at 50 µM ATP. 500 μM of the substrate DLG (Dilauroyl-sn-glycerol) was used.

The structures appear in SMILES notation.

T1 sequence (P23743 whole entry): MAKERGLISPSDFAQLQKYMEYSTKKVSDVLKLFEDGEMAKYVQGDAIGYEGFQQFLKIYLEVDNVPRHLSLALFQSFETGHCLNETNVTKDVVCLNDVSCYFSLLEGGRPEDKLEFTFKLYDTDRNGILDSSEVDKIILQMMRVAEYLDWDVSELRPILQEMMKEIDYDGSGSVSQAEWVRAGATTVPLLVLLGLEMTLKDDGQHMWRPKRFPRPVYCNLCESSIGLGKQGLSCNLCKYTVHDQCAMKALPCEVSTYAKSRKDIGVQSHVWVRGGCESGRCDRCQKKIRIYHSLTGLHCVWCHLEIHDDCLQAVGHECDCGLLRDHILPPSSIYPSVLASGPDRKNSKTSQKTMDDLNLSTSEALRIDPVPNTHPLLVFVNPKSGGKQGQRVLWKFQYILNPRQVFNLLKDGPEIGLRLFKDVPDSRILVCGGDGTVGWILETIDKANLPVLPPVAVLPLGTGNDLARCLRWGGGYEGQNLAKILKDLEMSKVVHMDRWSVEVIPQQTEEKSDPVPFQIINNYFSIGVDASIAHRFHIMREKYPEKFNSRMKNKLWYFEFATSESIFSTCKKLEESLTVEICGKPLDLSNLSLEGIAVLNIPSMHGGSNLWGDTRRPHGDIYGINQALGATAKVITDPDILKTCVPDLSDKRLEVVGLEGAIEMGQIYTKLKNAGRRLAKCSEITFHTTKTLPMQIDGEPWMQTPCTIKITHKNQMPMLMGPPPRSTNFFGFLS

On to `C[C@@](N)(c1nnc(-c2ccc3c(c2)N(Cc2ccc(-n4ccc(C(F)(F)F)n4)cc2)C(=O)[C@@H](N)CS3(=O)=O)o1)C(F)(F)F` [Example 157, (3R)-3-amino-7-[5-[(1R)-1-amino-2,2,2-trifluoro-1-methyl-ethyl]-1,3,4-oxadiazol-2-yl]-1,1-dioxo-5-[[4-[3-(trifluoromethyl)pyrazol-1-yl]phenyl]methyl]-2,3-dihydro-1λ^6,5-benzothiazepin-4-one], for which the figures for the IC50 in test [1] and in test [2] were 41400 nM and 2280 nM, respectively. In addition, in the test with MV-3 cells, the Emax came out at 100%. For the same compound, the EC50 with MV-3 cells came to 119 nM.
Compound `CC(C)(C#N)c1nnc(-c2ccc3c(c2)N(Cc2ccc(-n4ccc(C(F)(F)F)n4)cc2)C(=O)[C@@H](N)CS3(=O)=O)o1` [Example 121, 2-[5-[(3R)-3-amino-1,1,4-trioxo-5-[[4-[3-(trifluoromethyl)pyrazol-1-yl]phenyl]methyl]-2,3-dihydro-1λ^6,5-benzothiazepin-7-yl]-1,3,4-oxadiazol-2-yl]-2-methyl-propanenitrile] gave an IC50 in test [1] of more than 6250 nM. In addition, in test [2], 767 nM corresponded to half-maximal inhibition (IC50). For the same compound, in the test with MV-3 cells, the maximal effect (Emax) came out at 98% and the EC50 came to 109 nM.
`C[C@@](N)(c1nnc(-c2ccc3c(c2)N(Cc2ccc(-c4noc(C(F)(F)F)n4)cc2)C(=O)[C@@H](N)CS3(=O)=O)o1)C(F)(F)F` [Example 52, (3R)-3-amino-7-[5-[(1R)-1-amino-2,2,2-trifluoro-1-methyl-ethyl]-1,3,4-oxadiazol-2-yl]-1,1-dioxo-5-[[4-[5-(trifluoromethyl)-1,2,4-oxadiazol-3-yl]phenyl]methyl]-2,3-dihydro-1λ^6,5-benzothiazepin-4-one]: the IC50 in test [1] came out at 25200 nM; in test [2] it was 2320 nM; against DGK ζ kinase, 101 nM. For the same compound, the maximum response (Emax) with MV-3 cells was determined as 95%. Moreover, the 50% effective concentration (EC50) in the test on MV-3 cells was found to be 52 nM.
As for `CC(C)(C)c1nnc(-c2ccc3c(c2)N(Cc2ccc(-n4cnc(C(F)(F)F)n4)cc2)C(=O)[C@@H](N)CS3(=O)=O)o1` [Example 91, (3R)-3-amino-7-(5-tert-butyl-1,3,4-oxadiazol-2-yl)-1,1-dioxo-5-[[4-[3-(trifluoromethyl)-1,2,4-triazol-1-yl]phenyl]methyl]-2,3-dihydro-126,5-benzothiazepin-4-one], the IC50 in test [1] stood at 4240 nM; in test [2], 3010 nM. Further, the Emax in the test with MV-3 cells turned out to be 96%. Moreover, the 50% effective concentration (EC50) in the test on MV-3 cells turned out to be 237 nM.
On to `Cc1noc(-c2ccc(CN3C(=O)[C@@H](N)CS(=O)(=O)c4ccc(-c5nnc(C(C)(C)C)o5)cc43)cc2)n1` [Example 20, (3R)-3-amino-7-(5-tert-butyl-1,3,4-oxadiazol-2-yl)-5-[[4-(3-methyl-1,2,4-oxadiazol-5-yl)phenyl]methyl]-1,1-dioxo-2,3-dihydro-1λ^6,5-benzothiazepin-4-one], for which the 50% inhibitory concentration (IC50) came to 4960 nM in test [1], 1240 nM in test [2] and 439 nM against DGK ζ kinase.
Regarding `CC(C)(C#N)c1nnc(-c2ccc3c(c2)N(Cc2ccc(-c4ccc(C(F)(F)F)cn4)cc2)C(=O)[C@@H](N)CS3(=O)=O)o1` [Example 47], the IC50 is 7280 nM in test [1], 842 nM in test [2] and 71.3 nM against DGK ζ kinase. Also, the Emax with MV-3 cells came to 103%. Besides, in the test with MV-3 cells, the concentration for a half-maximal effect (EC50) was 280 nM.
In the same order, the values of `CC(C)(C#N)c1nnc(-c2ccc3c(c2)N(Cc2ccc(-c4ccc(OC(F)(F)F)cn4)cc2)C(=O)[C@@H](N)CS3(=O)=O)o1` [Example 124] are 2400 nM, 801 nM, 56.7 nM, 100% and 23 nM.
Take `N[C@H]1CS(=O)(=O)c2ccc(-c3nnc(N4CCOC(F)(F)C4)o3)cc2N(Cc2ccc(-c3noc(C(F)(F)F)n3)cc2)C1=O` [Example 78, (3R)-3-amino-7-[5-(2,2-difluoromorpholin-4-yl)-1,3,4-oxadiazol-2-yl]-1,1-dioxo-5-[[4-[5-(trifluoromethyl)-1,2,4-oxadiazol-3-yl]phenyl]methyl]-2,3-dihydro-1λ^6,5-benzothiazepin-4-one]: the results for the IC50 (in test [1]; in test [2]; against DGK ζ kinase) were 43300 nM, 2530 nM and 25.4 nM, respectively. Moreover, the Emax in the test on MV-3 cells turned out to be 112%. The half-maximal effective concentration (EC50) with MV-3 cells stood at 93 nM.
In test [1], `CC(C)(c1nnc(-c2ccc3c(c2)N(Cc2ccc(-c4noc(C(F)(F)F)n4)cc2)C(=O)[C@@H](N)CS3(=O)=O)o1)C(F)(F)F` [Example 166] displayed an IC50 of 3030 nM. This compound also displayed a 50% inhibitory concentration (IC50) in test [2] of 1720 nM. Besides, in the test on MV-3 cells, the maximum response (Emax) is 102% and the EC50 stood at 10 nM.
The corresponding values for `COC(=O)N1CC2CC(c3nnc(-c4ccc5c(c4)N(Cc4ccc(-c6ccc(C(F)(F)F)cn6)cc4)C(=O)[C@@H](N)CS5(=O)=O)o3)(C2)C1` [Example 159, methyl 1-[5-[(3R)-3-amino-1,1,4-trioxo-5-[[4-[5-(trifluoromethyl)-2-pyridyl]phenyl]methyl]-2,3-dihydro-1λ^6,5-benzothiazepin-7-yl]-1,3,4-oxadiazol-2-yl]-3-azabicyclo[3.1.1]heptane-3-carboxylate] are 1950 nM, 1350 nM, 102% and 166 nM.
For the compound `COc1ccc(-c2ccc(CN3C(=O)[C@@H](N)CS(=O)(=O)c4ccc(-c5nnc(N(C)CC(F)(F)F)o5)cc43)cc2)cc1` [Example 81, (3R)-3-amino-5-[[4-(4-methoxyphenyl)phenyl]methyl]-7-[5-[methyl(2,2,2-trifluoroethyl)amino]-1,3,4-oxadiazol-2-yl]-1,1-dioxo-2,3-dihydro-1λ^6,5-benzothiazepin-4-one], the IC50 in test [1] amounted to 38900 nM; in test [2], 2450 nM; against DGK ζ kinase it was 53.5 nM. In addition, the maximum response (Emax) in the test on MV-3 cells is 98%. Also, in the test with MV-3 cells, the EC50 worked out at 343 nM.
With `N[C@H]1CS(=O)(=O)c2ccc(-c3nnc(N4CCOC(C(F)(F)F)C4)o3)cc2N(Cc2ccc(-c3ccc(C(F)(F)F)cn3)cc2)C1=O` (stereo partly drawn) [Example 75, (3R)-3-amino-1,1-dioxo-7-[5-[2-(trifluoromethyl)morpholin-4-yl]-1,3,4-oxadiazol-2-yl]-5-[[4-[5-(trifluoromethyl)-2-pyridyl]phenyl]methyl]-2,3-dihydro-1λ^6,5-benzothiazepin-4-one], the IC50 in test [1] is 45700 nM; in test [2] it was 2680 nM.
